19 compounds from patent US11623919B2, “Heterocyclic P2X7 antagonists” (AXXAM S.P.A., priority 2017, dated 2023) can be followed below.

What all share (assay): Screen Quest Fluo-8 No Wash Calcium Assay (Bz-ATP evoked Ca2+ influx, FLIPR)
What all share (assay type): cell-based

Assay [1] addresses T1, P2X7 receptor (Homo sapiens, UniProt Q99572).
T1 sequence (Q99572 1-595): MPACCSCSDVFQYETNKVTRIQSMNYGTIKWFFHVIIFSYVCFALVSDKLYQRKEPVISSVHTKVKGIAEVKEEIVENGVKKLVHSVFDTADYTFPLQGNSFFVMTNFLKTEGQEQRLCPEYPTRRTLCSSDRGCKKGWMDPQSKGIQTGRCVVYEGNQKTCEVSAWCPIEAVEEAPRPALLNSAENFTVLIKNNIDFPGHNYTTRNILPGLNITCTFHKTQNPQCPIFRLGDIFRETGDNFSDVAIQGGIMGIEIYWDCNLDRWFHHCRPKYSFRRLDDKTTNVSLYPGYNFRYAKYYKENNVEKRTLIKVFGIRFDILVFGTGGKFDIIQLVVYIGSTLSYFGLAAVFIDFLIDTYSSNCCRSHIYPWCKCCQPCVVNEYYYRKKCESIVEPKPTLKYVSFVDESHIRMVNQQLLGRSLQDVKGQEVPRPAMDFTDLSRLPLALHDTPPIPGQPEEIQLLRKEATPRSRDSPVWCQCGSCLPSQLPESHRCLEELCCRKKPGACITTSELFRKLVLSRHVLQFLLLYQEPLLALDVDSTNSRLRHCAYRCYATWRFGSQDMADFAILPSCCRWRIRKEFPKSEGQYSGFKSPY
The arrangement: hP2X7 (IC50; nM); other: hP2X7; HEK-293 cells stably transfected with P2X7 receptor, Bz-ATP at EC80, Fluo-8 NW; potency. The settings on record: hP2X7; HEK-293 cells stably transfected with P2X7 receptor, Bz-ATP at EC80, Fluo-8 NW; potency ranges A-D. A digest of the protocol: (§1)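 HEK-293 cells stably expressing P2X7 were loaded with Fluo-8 NW for 1 h at RT, then given compound, and 5 min later Bz-ATP at EC80. Fluorescence was read by FLIPR in low divalent cation buffer (0.3 mM Ca2+, 0 mM Mg2+). IC50 came from percent inhibition relative to reference antagonist A438079.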

Assay [2] deals with T2, P2X7 receptor (Rattus norvegicus, UniProt Q64663).
T2 construct: rP2X7 (IC50; nM); other: rP2X7; HEK-293 cells stably transfected with P2X7 receptor, Bz-ATP at EC80, Fluo-8 NW; potency
T2 sequence (Q64663 1-595): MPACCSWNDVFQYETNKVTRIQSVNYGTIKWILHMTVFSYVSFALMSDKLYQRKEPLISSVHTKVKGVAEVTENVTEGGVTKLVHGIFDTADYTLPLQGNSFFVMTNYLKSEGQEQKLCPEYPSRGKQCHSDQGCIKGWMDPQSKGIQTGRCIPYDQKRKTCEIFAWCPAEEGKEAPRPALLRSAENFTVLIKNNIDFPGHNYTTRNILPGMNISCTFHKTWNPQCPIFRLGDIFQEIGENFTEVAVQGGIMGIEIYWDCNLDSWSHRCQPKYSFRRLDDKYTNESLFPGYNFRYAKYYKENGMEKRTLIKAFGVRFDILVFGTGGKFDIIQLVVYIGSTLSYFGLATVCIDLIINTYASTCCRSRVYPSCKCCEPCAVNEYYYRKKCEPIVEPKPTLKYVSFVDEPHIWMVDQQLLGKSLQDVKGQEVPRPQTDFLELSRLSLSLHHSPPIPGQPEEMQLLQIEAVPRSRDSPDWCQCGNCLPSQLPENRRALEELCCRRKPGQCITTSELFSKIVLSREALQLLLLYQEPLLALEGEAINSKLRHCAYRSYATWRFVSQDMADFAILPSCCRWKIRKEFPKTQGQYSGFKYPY
Conditions: rP2X7; HEK-293 cells stably transfected with P2X7 receptor, Bz-ATP at EC80, Fluo-8 NW; potency ranges A-D. In outline:
as §1

The target in assay [3] is T3, P2X7 receptor (Mus musculus, UniProt Q9Z1M0).
T3 construct: mP2X7 (IC50; nM); other: mP2X7; HEK-293 cells stably transfected with P2X7 receptor, Bz-ATP at EC80, Fluo-8 NW; potency
T3 sequence (Q9Z1M0 1-595): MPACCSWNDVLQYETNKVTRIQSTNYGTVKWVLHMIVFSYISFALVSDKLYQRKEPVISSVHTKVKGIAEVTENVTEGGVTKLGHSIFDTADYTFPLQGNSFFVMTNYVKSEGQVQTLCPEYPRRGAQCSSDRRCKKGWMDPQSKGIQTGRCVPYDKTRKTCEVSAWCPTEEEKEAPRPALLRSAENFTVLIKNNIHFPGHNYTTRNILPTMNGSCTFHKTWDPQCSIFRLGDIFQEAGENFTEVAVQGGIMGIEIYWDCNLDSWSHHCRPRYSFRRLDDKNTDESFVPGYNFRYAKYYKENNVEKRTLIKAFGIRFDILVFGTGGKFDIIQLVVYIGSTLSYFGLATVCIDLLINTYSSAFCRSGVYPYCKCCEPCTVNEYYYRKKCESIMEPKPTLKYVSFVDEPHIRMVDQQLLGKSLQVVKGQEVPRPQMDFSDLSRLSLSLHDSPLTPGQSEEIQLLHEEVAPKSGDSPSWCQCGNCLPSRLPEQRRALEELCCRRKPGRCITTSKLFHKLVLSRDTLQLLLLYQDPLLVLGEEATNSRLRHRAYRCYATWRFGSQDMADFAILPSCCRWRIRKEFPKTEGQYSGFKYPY
Conditions: mP2X7; HEK-293 cells stably transfected with P2X7 receptor, Bz-ATP at EC80, Fluo-8 NW; potency ranges A-D. In outline:
as §1

Each structure is given as a SMILES string.

Broadly, the IC50 is the concentration that gives 50% inhibition. Turning to `COc1cccc(Cc2noc(=O)n2CC2CCCCC2)c1` [Example 127, 4-(cyclohexylmethyl)-3-[(3-methoxyphenyl)methyl]-4,5-dihydro-1,2,4-oxadiazol-5-one], the IC50 at P2X7 receptor [1], on P2X7 receptor [2] and at P2X7 receptor [3] was > 10000 nM each time.

Regarding `O=c1onc(CC2CCCCC2)n1CC1CCCCC1` [Example 129, bis(cyclohexylmethyl)-4,5-dihydro-1,2,4-oxadiazol-5-one], the figures for the IC50 on P2X7 receptor [1], at P2X7 receptor [2] and at P2X7 receptor [3] were > 10000 nM, 1000 to 10000 nM and 1000 to 10000 nM, respectively.

On to `O=c1onc(CC2CCCCC2)n1Cc1ccc(F)cc1` [Example 131, 3-(cyclohexylmethyl)-4-[(4-fluorophenyl)methyl]-4,5-dihydro-1,2,4-oxadiazol-5-one], for which the IC50 at P2X7 receptor [1], at P2X7 receptor [2] and at P2X7 receptor [3] was 1000 to 10000 nM in each case.

In the case of `O=c1onc(CC2CCC(F)(F)CC2)n1CC1CCCCC1` [Example 133, 4-(cyclohexylmethyl)-3-[(4,4-difluorocyclohexyl)methyl]-4,5-dihydro-1,2,4-oxadiazol-5-one], the half-maximal inhibitory concentration (IC50) on P2X7 receptor [1] was 1000 to 10000 nM; on P2X7 receptor [2], 1000 to 10000 nM; at P2X7 receptor [3], > 10000 nM.

With `O=c1onc(C(O)c2cccc(C(F)(F)F)c2Cl)n1Cc1c(F)cccc1Cl` (stereo not drawn) [Example 135, 3-{[2-chloro-3-(trifluoromethyl)phenyl](hydroxy)methyl}-4-[(2-chloro-6-fluorophenyl)methyl]-4,5-dihydro-1,2,4-oxadiazol-5-one], the IC50 at P2X7 receptor [1] was 200 to 1000 nM; on P2X7 receptor [2] it was > 10000 nM; at P2X7 receptor [3] it was > 10000 nM.

`O=c1onc(C(O)c2cccc(C(F)(F)F)c2Cl)n1Cc1ccccc1` (stereo not drawn) [Example 136, 4-benzyl-3-{[2-chloro-3-(trifluoromethyl)phenyl](hydroxy)methyl}-4,5-dihydro-1,2,4-oxadiazol-5-one]: the half-inhibitory concentration (IC50) on P2X7 receptor [1] was 1000 to 10000 nM; on P2X7 receptor [2], > 10000 nM; on P2X7 receptor [3], > 10000 nM.

`O=c1onc(C(O)c2ccc(F)cc2F)n1Cc1c(F)cccc1Cl` (stereo not drawn) [Example 137, 4-[(2-chloro-6-fluorophenyl)methyl]-3-[(2,4-dffluorophenyl)(hydroxy)methyl]-4,5-dihydro-1,2,4-oxadiazol-5-one]: the half-inhibitory concentration (IC50) on P2X7 receptor [1], on P2X7 receptor [2] and at P2X7 receptor [3] was 1000 to 10000 nM in each case.

As for `O=c1onc(C(O)c2cccc(Cl)c2Cl)n1Cc1c(F)cccc1Cl` (stereo not drawn) [Example 138, 4-[(2-chloro-6-fluorophenyl)methyl]-3-[(2,3-dichlorophenyl)(hydroxy)methyl]-4,5-dihydro-1,2,4-oxadiazol-5-one], the IC50 at P2X7 receptor [1], at P2X7 receptor [2] and on P2X7 receptor [3] was 1000 to 10000 nM each time.

For the compound `O=c1snc(Cc2c(F)cccc2Cl)n1Cc1ccc(F)cc1` [Example 139, 3-[(2-chloro-6-fluorophenyl)methyl]-4-[(4-fluorophenyl)methyl]-4,5-dihydro-1,2,4-thiadiazol-5-one], the IC50 was in the range of 200 to 1000 nM at P2X7 receptor [1], 200 to 1000 nM on P2X7 receptor [2] and 1000 to 10000 nM on P2X7 receptor [3].

As to `O=c1onc(Cc2c(F)cccc2Cl)n1CCN1CCCCC1` [Example 143, 3-(2-chloro-6-fluorobenzyl)-4-[2-(piperidin-1-yl)ethyl]-1,2,4-oxadiazol-5(4H)-one], the IC50 on P2X7 receptor [1] lay in the range of 200 to 1000 nM; at P2X7 receptor [2], 200 to 1000 nM; on P2X7 receptor [3], 1000 to 10000 nM.

As to `O=c1onc(CCc2c(F)cccc2Cl)n1Cc1c(F)cccc1Cl` [Example 144, 4-(2-chloro-6-fluorobenzyl)-3-[2-(2-chloro-6-fluorophenyl)ethyl]-1,2,4-oxadiazol-5(4H)-one], the IC50 fell in the range of 200 to 1000 nM at P2X7 receptor [1], 200 to 1000 nM at P2X7 receptor [2] and 1000 to 10000 nM at P2X7 receptor [3].

Consider `O=c1onc(CCc2c(F)cccc2Cl)n1Cc1ccc(F)cc1` [Example 145, 3-[2-(2-chloro-6-fluorophenyl)ethyl]-4-(4-fluorobenzyl)-1,2,4-oxadiazol-5(4H)-one], for which the IC50 at P2X7 receptor [1], at P2X7 receptor [2] and at P2X7 receptor [3] was 200 to 1000 nM in each case.

As to `O=c1onc(CCc2c(F)cccc2Cl)n1CC1CCCCC1` [Example 146, 3-[2-(2-chloro-6-fluorophenyl)ethyl]-4-(cyclohexylmethyl)-1,2,4-oxadiazol-5(4H)-one], the IC50 at P2X7 receptor [1] is 1000 to 10000 nM; on P2X7 receptor [2], 1000 to 10000 nM; on P2X7 receptor [3], > 10000 nM.

As to `O=c1onc(CCc2c(F)cccc2Cl)n1CC1CCC(F)(F)CC1` [Example 147, 3-[2-(2-chloro-6-fluorophenyl)ethyl]-4-[(4,4-difluorocyclohexyl)methyl]-1,2,4-oxadiazol-5(4H)-one], the IC50 on P2X7 receptor [1], on P2X7 receptor [2] and on P2X7 receptor [3] was 200 to 1000 nM throughout.

For the compound `O=c1onc(Cc2ccccc2F)n1CC1CCC(F)(F)CC1` [Example 150, 4-[(4,4-difluorocyclohexyl)methyl]-3-[(2-fluorophenyl)methyl]-4,5-dihydro-1,2,4-oxadiazol-5-one], the concentration for half-maximal inhibition (IC50) was 200 to 1000 nM at P2X7 receptor [1], < 200 nM on P2X7 receptor [2] and 200 to 1000 nM on P2X7 receptor [3].

Turning to `O=c1onc(Cc2cccc(F)c2)n1CC1CCC(F)(F)CC1` [Example 151, 4-[(4,4-difluorocyclohexyl)methyl]-3-[(3-fluorophenyl)methyl]-4,5-dihydro-1,2,4-oxadiazol-5-one], the IC50 on P2X7 receptor [1] fell in the range of 200 to 1000 nM; at P2X7 receptor [2] it was 200 to 1000 nM; on P2X7 receptor [3], 1000 to 10000 nM.

Take `O=c1onc(Cc2ccc(F)cc2)n1CC1CCC(F)(F)CC1` [Example 152, 4-[(4,4-difluorocyclohexyl)methyl]-3-[(4-fluorophenyl)methyl]-4,5-dihydro-1,2,4-oxadiazol-5-one]: the IC50 is 200 to 1000 nM at P2X7 receptor [1], 200 to 1000 nM at P2X7 receptor [2] and 1000 to 10000 nM on P2X7 receptor [3].

Turning to `O=c1onc(Cc2ccc(F)cc2F)n1CC1CCC(F)(F)CC1` [Example 153, 4-[(4,4-difluorocyclohexyl)methyl]-3-[(2,4-difluorophenyl)methyl]-4,5-dihydro-1,2,4-oxadiazol-5-one], the IC50 at P2X7 receptor [1] is < 200 nM; on P2X7 receptor [2], < 200 nM; at P2X7 receptor [3], 200 to 1000 nM.

As to `COc1ccc(Cc2noc(=O)n2CC2CCC(F)(F)CC2)cc1` [Example 154, 4-[(4,4-difluorocyclohexyl)methyl]-3-[(4-methoxyphenyl)methyl]-4,5-dihydro-1,2,4-oxadiazol-5-one], the IC50 on P2X7 receptor [1], on P2X7 receptor [2] and at P2X7 receptor [3] was 1000 to 10000 nM throughout.
